We go through 5 molecules from PubChem BioAssay AID1963439 (Molecular Pharmacology Branch, DTP, NCI, 2024).

This test concerns NCI-H196 complex spheroids with HUVEC/MSC, growth % T/C. The experiment in a line: Anticancer human tumor NCI-H196 cell line growth inhibition [Asc].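 As to all read-outs here: spheroids exposed to compound for 7 days before measurement.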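 As to viability, T/C: 100% = DMSO vehicle control wells.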 To be noted: for viability, T/C: stronger effect = lower value. The method, boiled down: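 Concentration series start at each agent's clinical Cmax, or at 10 microM when none is established, and drop in half-log steps; agents are applied alone or together to complex spheroids built with HUVEC and hMSC.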

[1] abbreviates: curve of first compound, second compound 0.1 µM.
[2] abbreviates: curve of first compound, second compound 0.316 µM.
The mark [3] stands for this setting: curve of first compound, second compound 1 µM.
The mark [4] stands for this setting: curve of first compound, second compound 3.16 µM.
[5] abbreviates: curve of first compound, second compound 10 µM.
The mark [6] stands for this setting: second compound 0.1 µM, first compound 0.0316 µM.
Where [7] appears, read: second compound 0.1 µM, first compound 0.1 µM.
The mark [8] stands for this setting: second compound 0.1 µM, first compound 0.316 µM.
Setting [9] is: second compound 0.1 µM, first compound 1 µM.
The mark [10] stands for this setting: second compound 0.316 µM, first compound 0.0316 µM.
[11] abbreviates: second compound 0.316 µM, first compound 0.1 µM.
Setting [12] is: second compound 0.316 µM, first compound 0.316 µM.
[13] abbreviates: second compound 0.316 µM, first compound 1 µM.
[14] abbreviates: second compound 1 µM, first compound 0.0316 µM.
Setting [15] is: second compound 1 µM, first compound 0.1 µM.
The mark [16] stands for this setting: second compound 1 µM, first compound 0.316 µM.
The mark [17] stands for this setting: second compound 1 µM, first compound 1 µM.
Where [18] appears, read: second compound 3.16 µM, first compound 0.0316 µM.
The mark [19] stands for this setting: second compound 3.16 µM, first compound 0.1 µM.
Setting [20] is: second compound 3.16 µM, first compound 0.316 µM.
[21] abbreviates: second compound 3.16 µM, first compound 1 µM.
Where [22] appears, read: second compound 10 µM, first compound 0.0316 µM.
The mark [23] stands for this setting: second compound 10 µM, first compound 0.1 µM.
Setting [24] is: second compound 10 µM, first compound 0.316 µM.
[25] abbreviates: second compound 10 µM, first compound 1 µM.

“And” between values parts separate entries of the source, which are not always exact repeats. Equal values may be shown once. Where only a bound is given, the exact number is not on record here.

A word on the IC50: it is the concentration at which inhibition is half-maximal. By viability, T/C is commonly meant the result in the treated group divided by that in the control group, in per cent. As for `NC(=O)C(=Cn1cnc(-c2cc(C(F)(F)F)cc(C(F)(F)F)c2)n1)c1cncnc1` + Cc1c(S(C)(=O)=O)c(-c2cc(F)cc(N3CCN(c4ccc(NS(=O)(=O)c5ccc(NC(CCN6CCC(C(=O)OCCCP(=O)(O)O)CC6)CSc6ccccc6)c(S(=O)(=O)C(F)(F)F)c5)cc4)CC3)c2)c(-c2ccc(Cl)cc2)n1C(C)C, the IC50 came to 19.3 nM under setting [1]; 23.3 nM under setting [2]; 21.3 nM under setting [3]; 19.8 nM under setting [4]; 14.7 nM under setting [5]. Besides, the viability, T/C was 101% (second compound 0.1 µM, first compound 0.000949 µM); 89.2% (second compound 0.1 µM, first compound 0.003 µM); 72.1% (second compound 0.1 µM, first compound 0.00949 µM); 38.7% (second compound 0.1 µM, first compound 0.03 µM); 4.69% (second compound 0.1 µM, first compound 0.0949 µM); 1.47% (second compound 0.1 µM, first compound 0.3 µM). Further, the viability, T/C is, setting by setting: (second compound 0.316 µM, first compound 0.000949 µM) 95.5%; (second compound 0.316 µM, first compound 0.003 µM) 89%; (second compound 0.316 µM, first compound 0.00949 µM) 78.9%; (second compound 0.316 µM, first compound 0.03 µM) 43.4%; (second compound 0.316 µM, first compound 0.0949 µM) 3.08%; (second compound 0.316 µM, first compound 0.3 µM) 1.16%. The viability, T/C is 91.2% (second compound 1 µM, first compound 0.000949 µM); 83.5% (second compound 1 µM, first compound 0.003 µM); 72.3% (second compound 1 µM, first compound 0.00949 µM); 42.8% (second compound 1 µM, first compound 0.03 µM); 2.35% (second compound 1 µM, first compound 0.0949 µM); 1.29% (second compound 1 µM, first compound 0.3 µM). In addition, the viability, T/C was 78% (second compound 3.16 µM, first compound 0.000949 µM); 78.5% (second compound 3.16 µM, first compound 0.003 µM); 64.1% (second compound 3.16 µM, first compound 0.00949 µM); 42.5% (second compound 3.16 µM, first compound 0.03 µM); 2.09% (second compound 3.16 µM, first compound 0.0949 µM); 1.75% (second compound 3.16 µM, first compound 0.3 µM). In addition, the viability, T/C was 76.4% (second compound 10 µM, first compound 0.000949 µM); 74.3% (second compound 10 µM, first compound 0.003 µM); 59.6% (second compound 10 µM, first compound 0.00949 µM); 33.5% (second compound 10 µM, first compound 0.03 µM); 2.89% (second compound 10 µM, first compound 0.0949 µM); 1.28% (second compound 10 µM, first compound 0.3 µM).

Regarding `COc1c(OCCCN2CCOCC2)ccc2c3n(c(=NC(=O)c4cnc(N)nc4)nc12)CCN3` + Cc1c(S(C)(=O)=O)c(-c2cc(F)cc(N3CCN(c4ccc(NS(=O)(=O)c5ccc(NC(CCN6CCC(C(=O)OCCCP(=O)(O)O)CC6)CSc6ccccc6)c(S(=O)(=O)C(F)(F)F)c5)cc4)CC3)c2)c(-c2ccc(Cl)cc2)n1C(C)C, the concentration for half-maximal inhibition (IC50) runs as follows: under setting [1], above 1000 nM; under setting [2], above 1000 nM; under setting [3], 286 nM; under setting [4], 225 nM; under setting [5], 132 nM. The viability, T/C is, setting by setting: (second compound 0.1 µM, first compound 0.00316 µM) 96.6%; (second compound 0.1 µM, first compound 0.01 µM) 88.3%; under setting [6], 76.4%; under setting [7], 77.5%; under setting [8], 59.7%; under setting [9], 50.8%. Further, the viability, T/C reads like this: (second compound 0.316 µM, first compound 0.00316 µM) 90.6%; (second compound 0.316 µM, first compound 0.01 µM) 86.8%; under setting [10], 82.3%; under setting [11], 62.7%; under setting [12], 57.9%; under setting [13], 50.7%. In addition, the viability, T/C by setting is: (second compound 1 µM, first compound 0.00316 µM) 88.8%; (second compound 1 µM, first compound 0.01 µM) 86.5%; under setting [14], 74.6%; under setting [15], 60.5%; under setting [16], 49.3%; under setting [17], 43.9%. The viability, T/C is, setting by setting: (second compound 3.16 µM, first compound 0.00316 µM) 80%; (second compound 3.16 µM, first compound 0.01 µM) 88.7%; under setting [18], 72.3%; under setting [19], 62.8%; under setting [20], 44.8%; under setting [21], 37.4%. Moreover, the viability, T/C is, setting by setting: (second compound 10 µM, first compound 0.00316 µM) 74.2%; (second compound 10 µM, first compound 0.01 µM) 80.1%; under setting [22], 65.7%; under setting [23], 52.6%; under setting [24], 41.5%; under setting [25], 32.3%.

Consider `Cc1nc(N2CCC3(CC2)COC(C)C3N)c(CO)nc1Sc1ccnc(N)c1Cl` (centres undefined), for which the viability, T/C was 108% and 110% and 98.4% (compound 0.00949 µM); 142% and 106% and 101% (compound 0.03 µM); 106% and 99% and 102% (compound 0.0949 µM); 86.8% and 96.3% and 92.5% (compound 0.3 µM); 43% and 63.5% and 67.1% (compound 0.949 µM); 13.2% and 30.9% and 37.1% (compound 3 µM). In addition, the IC50 (curve of compound) was 777 nM and 1550 nM and 1820 nM.

As for `CCN1C(C(=O)NC23CCC(C(=O)O)(CC2)CC3)C(c2cccc(Cl)c2F)C2(C(=O)Nc3cc(Cl)ccc32)C12CCCCC2` (centres undefined), the viability, T/C by setting is: (compound 0.00949 µM) 102% and 98.3%; (compound 0.03 µM) 102% [middle of 15 runs]; (compound 0.0949 µM) 106% [middle of 15 runs]; (compound 0.3 µM) 106% [middle of 15 runs]; (compound 0.949 µM) 113% [middle of 15 runs]. Besides, the IC50 is, setting by setting: (compound alone, run of 09/27/2022) above 3000 nM; (curve of compound) above 3000 nM.

For the molecule `C#Cc1c(F)ccc2cc(O)cc(-c3ncc4c(N5CC6CCC(C5)N6)nc(OCC56CCCN5CC(F)C6)nc4c3F)c12` (centres undefined) + Cc1c(S(C)(=O)=O)c(-c2cc(F)cc(N3CCN(c4ccc(NS(=O)(=O)c5ccc(NC(CCN6CCC(C(=O)OCCCP(=O)(O)O)CC6)CSc6ccccc6)c(S(=O)(=O)C(F)(F)F)c5)cc4)CC3)c2)c(-c2ccc(Cl)cc2)n1C(C)C, the IC50 was above 10000 nM under setting [1]; above 10000 nM under setting [2]; above 10000 nM under setting [3]; above 10000 nM under setting [4]; above 10000 nM under setting [5]. Besides, the viability, T/C is, setting by setting: under setting [6], 92.8%; under setting [7], 93%; under setting [8], 98.2%; under setting [9], 98.1%; (second compound 0.1 µM, first compound 3.16 µM) 94.2%; (second compound 0.1 µM, first compound 10 µM) 93.5%. The viability, T/C under setting [10] is 98.3%; the viability, T/C under setting [11] is 93.3%; the viability, T/C under setting [12] is 88.8%; the viability, T/C under setting [13] is 97.8%; the viability, T/C (second compound 0.316 µM, first compound 3.16 µM) was 94.8%; the viability, T/C (second compound 0.316 µM, first compound 10 µM) is 88.1%. Moreover, the viability, T/C by setting is: under setting [14], 88.9%; under setting [15], 87.7%; under setting [16], 90.8%; under setting [17], 89.2%; (second compound 1 µM, first compound 3.16 µM) 93.7%; (second compound 1 µM, first compound 10 µM) 83.7%. For the same molecule, the viability, T/C is, setting by setting: under setting [18], 84.4%; under setting [19], 86.7%; under setting [20], 81.3%; under setting [21], 75.5%; (second compound 3.16 µM, first compound 3.16 µM) 78.5%; (second compound 3.16 µM, first compound 10 µM) 70.1%. The viability, T/C was 71.8% under setting [22]; 77.8% under setting [23]; 82.7% under setting [24]; 80.4% under setting [25]; 71.2% (second compound 10 µM, first compound 3.16 µM); 58% (second compound 10 µM, first compound 10 µM).
